Laboratory results taken from article PMC3128788 (Nuclear medicine and biology, 2011).
Marks after values point to notes of the source that are not given here.

Assay type: in vivo, male Sprague Dawley rats
Details: for Blood %ID/gram, 5 min CycA / Bone %ID/gram, 5 min CycA / Fat %ID/gram, 5 min CycA / Kidney %ID/gram, 5 min CycA / Liver %ID/gram, 5 min CycA / Lung %ID/gram, 5 min CycA / Muscle %ID/gram, 5 min CycA / Total brain %ID/gram, 5 min CycA / Blood %ID/gram, 30 min CycA / Bone %ID/gram, 30 min CycA / Fat %ID/gram, 30 min CycA / Kidney %ID/gram, 30 min CycA / Liver %ID/gram, 30 min CycA / Lung %ID/gram, 30 min CycA / Muscle %ID/gram, 30 min CycA / Total brain %ID/gram, 30 min CycA: CycA […] mg/kg i.v. 30 min before tracer; for Blood %ID/gram, 5 min CycA / Bone %ID/gram, 5 min CycA / Fat %ID/gram, 5 min CycA / Kidney %ID/gram, 5 min CycA / Liver %ID/gram, 5 min CycA / Lung %ID/gram, 5 min CycA / Muscle %ID/gram, 5 min CycA / Total brain %ID/gram, 5 min CycA / Blood %ID/gram, 5 min No Rx / Bone %ID/gram, 5 min No Rx / Fat %ID/gram, 5 min No Rx / Kidney %ID/gram, 5 min No Rx / Liver %ID/gram, 5 min No Rx / Lung %ID/gram, 5 min No Rx / Muscle %ID/gram, 5 min No Rx / Total brain %ID/gram, 5 min No Rx: 5 min post-injection; for Blood %ID/gram, 30 min CycA / Bone %ID/gram, 30 min CycA / Fat %ID/gram, 30 min CycA / Kidney %ID/gram, 30 min CycA / Liver %ID/gram, 30 min CycA / Lung %ID/gram, 30 min CycA / Muscle %ID/gram, 30 min CycA / Total brain %ID/gram, 30 min CycA / Blood %ID/gram, 30 min No Rx / Bone %ID/gram, 30 min No Rx / Fat %ID/gram, 30 min No Rx / Kidney %ID/gram, 30 min No Rx / Liver %ID/gram, 30 min No Rx / Lung %ID/gram, 30 min No Rx / Muscle %ID/gram, 30 min No Rx / Total brain %ID/gram, 30 min No Rx: 30 min post-injection; for Blood %ID/gram, 5 min No Rx / Bone %ID/gram, 5 min No Rx / Fat %ID/gram, 5 min No Rx / Kidney %ID/gram, 5 min No Rx / Liver %ID/gram, 5 min No Rx / Lung %ID/gram, 5 min No Rx / Muscle %ID/gram, 5 min No Rx / Total brain %ID/gram, 5 min No Rx / Blood %ID/gram, 30 min No Rx / Bone %ID/gram, 30 min No Rx / Fat %ID/gram, 30 min No Rx / Kidney %ID/gram, 30 min No Rx / Liver %ID/gram, 30 min No Rx / Lung %ID/gram, 30 min No Rx / Muscle %ID/gram, 30 min No Rx / Total brain %ID/gram, 30 min No Rx: control rats, i.v.; for Bone activity levels from 5 min to 30 min (metabolic defluorination): normal rats; for Blood CycA:No Rx / Bone CycA:No Rx / Fat CycA:No Rx / Kidney CycA:No Rx / Liver CycA:No Rx / Lung CycA:No Rx / Muscle CycA:No Rx / Total brain CycA:No Rx: ratio of tracer uptake in CycA versus control group 30 min post injection

SMILES: CN(C)c1ccc(C(=O)NCCCCN2CCN(c3ccccc3OCC[18F])CC2)cc1 [[^18F]8, 4-(dimethylamino)-N-(4-(4-(2-(2-[^18F]fluoroethoxy)phenyl)piperazin-1-yl)butyl)benzamide]
- Blood %ID/gram, 5 min CycA: 0.109 ± 0.009 %ID/gram
- Bone %ID/gram, 5 min CycA: 0.288 ± 0.008 %ID/gram
- Fat %ID/gram, 5 min CycA: 0.116 ± 0.004 %ID/gram
- Kidney %ID/gram, 5 min CycA: 2.235 ± 0.175 %ID/gram
- Liver %ID/gram, 5 min CycA: 1.770 ± 0.584 %ID/gram
- Lung %ID/gram, 5 min CycA: 1.893 ± 0.158 %ID/gram
- Muscle %ID/gram, 5 min CycA: 0.184 ± 0.014 %ID/gram
- Total brain %ID/gram, 5 min CycA: 0.895 ± 0.063 %ID/gram
- Blood %ID/gram, 30 min CycA: 0.062 ± 0.018 %ID/gram
- Bone %ID/gram, 30 min CycA: 0.599 ± 0.152 %ID/gram
- Fat %ID/gram, 30 min CycA: 0.115 ± 0.030 %ID/gram
- Kidney %ID/gram, 30 min CycA: 2.548 ± 0.490 %ID/gram
- Liver %ID/gram, 30 min CycA: 2.431 ± 0.365 %ID/gram
- Lung %ID/gram, 30 min CycA: 1.154 ± 0.102 %ID/gram
- Muscle %ID/gram, 30 min CycA: 0.154 ± 0.038 %ID/gram
- Total brain %ID/gram, 30 min CycA: 0.970 ± 0.077 %ID/gram
- Increase in brain uptake after CycA administration at 5 min (CycA pretreated versus control rats, 5 min post injection): 5.0 fold
- Blood %ID/gram, 5 min No Rx: 0.079 ± 0.006 %ID/gram
- Bone %ID/gram, 5 min No Rx: 0.490 ± 0.033 %ID/gram
- Fat %ID/gram, 5 min No Rx: 0.101 ± 0.046 %ID/gram
- Kidney %ID/gram, 5 min No Rx: 2.939 ± 0.544 %ID/gram
- Liver %ID/gram, 5 min No Rx: 2.124 ± 0.113 %ID/gram
- Lung %ID/gram, 5 min No Rx: 2.432 ± 0.211 %ID/gram
- Muscle %ID/gram, 5 min No Rx: 0.099 ± 0.007 %ID/gram
- Total brain %ID/gram, 5 min No Rx: 0.178 ± 0.030 %ID/gram
- Blood %ID/gram, 30 min No Rx: 0.046 ± 0.008 %ID/gram
- Bone %ID/gram, 30 min No Rx: 0.882 ± 0.153 %ID/gram
- Fat %ID/gram, 30 min No Rx: 0.095 ± 0.017 %ID/gram
- Kidney %ID/gram, 30 min No Rx: 2.710 ± 0.235 %ID/gram
- Liver %ID/gram, 30 min No Rx: 2.134 ± 0.313 %ID/gram
- Lung %ID/gram, 30 min No Rx: 1.553 ± 0.179 %ID/gram
- Muscle %ID/gram, 30 min No Rx: 0.111 ± 0.006 %ID/gram
- Total brain %ID/gram, 30 min No Rx: 0.180 ± 0.006 %ID/gram
- Bone activity levels from 5 min to 30 min (metabolic defluorination): two-fold increase
- Blood CycA:No Rx: 1.35
- Bone CycA:No Rx: 0.68
- Fat CycA:No Rx: 1.20
- Kidney CycA:No Rx: 0.94
- Liver CycA:No Rx: 1.14
- Lung CycA:No Rx: 0.74
- Muscle CycA:No Rx: 1.38
- Total brain CycA:No Rx: 5.38 ^g

SMILES: O=C(NCCCCN1CCN(c2ccccc2OCC[18F])CC1)c1ccc(-c2ccsc2)cc1 [[^18F]9, N-(4-(4-(2-(2-[^18F]fluoroethoxy)phenyl)piperazin-1-yl)butyl)-4-(thiophen-3-yl)benzamide]
- Blood %ID/gram, 5 min CycA: 0.098 ± 0.009 %ID/gram
- Bone %ID/gram, 5 min CycA: 0.162 ± 0.030 g %ID/gram
- Fat %ID/gram, 5 min CycA: 0.046 ± 0.028 %ID/gram
- Kidney %ID/gram, 5 min CycA: 1.913 ± 0.037 %ID/gram
- Liver %ID/gram, 5 min CycA: 1.478 ± 0.336 %ID/gram
- Lung %ID/gram, 5 min CycA: 3.356 ± 0.261 %ID/gram
- Muscle %ID/gram, 5 min CycA: 0.097 ± 0.0417 %ID/gram
- Total brain %ID/gram, 5 min CycA: 0.725 ± 0.022 %ID/gram
- Blood %ID/gram, 30 min CycA: 0.109 ± 0.019 %ID/gram
- Bone %ID/gram, 30 min CycA: 0.143 ± 0.016 %ID/gram
- Fat %ID/gram, 30 min CycA: 0.093 ± 0.017 %ID/gram
- Kidney %ID/gram, 30 min CycA: 1.397 ± 0.260 %ID/gram
- Liver %ID/gram, 30 min CycA: 1.039 ± 0.124 %ID/gram
- Lung %ID/gram, 30 min CycA: 1.063 ± 0.182 %ID/gram
- Muscle %ID/gram, 30 min CycA: 0.108 ± 0.014 %ID/gram
- Total brain %ID/gram, 30 min CycA: 0.504 ± 0.023 %ID/gram
- Blood %ID/gram, 5 min No Rx: 0.082 ± 0.027 %ID/gram
- Bone %ID/gram, 5 min No Rx: 0.253 ± 0.001 %ID/gram
- Fat %ID/gram, 5 min No Rx: 0.028 ± 0.003 %ID/gram
- Kidney %ID/gram, 5 min No Rx: 2.485 ± 0.608 %ID/gram
- Liver %ID/gram, 5 min No Rx: 1.430 ± 0.221 %ID/gram
- Lung %ID/gram, 5 min No Rx: 4.026 ± 1.177 %ID/gram
- Muscle %ID/gram, 5 min No Rx: 0.083 ± 0.009 %ID/gram
- Total brain %ID/gram, 5 min No Rx: 0.118 ± 0.001 %ID/gram
- Blood %ID/gram, 30 min No Rx: 0.104 ± 0.010 %ID/gram
- Bone %ID/gram, 30 min No Rx: 0.220 ± 0.0494 %ID/gram
- Fat %ID/gram, 30 min No Rx: 0.091 ± 0.0029 %ID/gram
- Kidney %ID/gram, 30 min No Rx: 1.363 ± 0.0359 %ID/gram
- Liver %ID/gram, 30 min No Rx: 1.162 ± 0.1400 %ID/gram
- Lung %ID/gram, 30 min No Rx: 1.313 ± 0.3574 %ID/gram
- Muscle %ID/gram, 30 min No Rx: 0.083 ± 0.0139 %ID/gram
- Total brain %ID/gram, 30 min No Rx: 0.095 ± 0.0208 %ID/gram
- Bone activity levels from 5 min to 30 min (metabolic defluorination): No accumulation
- Blood CycA:No Rx: 1.05
- Bone CycA:No Rx: 0.65
- Fat CycA:No Rx: 1.02
- Kidney CycA:No Rx: 1.03
- Liver CycA:No Rx: 0.89
- Lung CycA:No Rx: 0.81
- Muscle CycA:No Rx: 1.24
- Total brain CycA:No Rx: 5.33 ^h
